In US9156839B2, “Fused bicyclic sulfamoyl derivatives and the use thereof as medicaments for the treatment of hepatitis B” (JANSSEN SCIENCES IRELAND UC, priority 2012, dated 2015):

Columns and labels:
Assay type in all cases: cell-based
[1] = test system: HBV; assay: Anti-HBV activity in HepG2.2.15 stable transfected cell line, HBV DNA from secreted virions by realtime PCR; conditions: Hepatitis B virus, read-out: HBV - HepG2.15
[2] = test system: HBV; assay: Anti-HBV activity in HepG2.117 inducible HBV producing cell line (Tet-off), intracellular HBV DNA by realtime PCR; conditions: Hepatitis B virus, read-out: HepG2 117 EC50
[3] = Cytotoxicity in HepG2 cells, Resazurin assay; conditions: human, 4 days incubation, Resazurin viability
Procedure: Cytotoxicity of the compounds was also tested using HepG2 cells, incubated for 4 days in the presence of compounds. The viability of the cells was assessed using a Resazurin assay.

[4] = 144 h, HepG2.2.15 cells, 6 days of treatment, HBV DNA from secreted virions
[5] = 72 h, HepG2.117 cells, 3 days of treatment, intracellular HBV DNA

## COC(=O)n1nc(Nc2ccc(F)cc2)c2cc(S(=O)(=O)NC3CCCC3)ccc21 [Compound 10]
[1]; [4]
  EC50: 46.5 µM
[2]; [5]
  EC50: > 25 µM
[3]
  CC50 at 4 days: > 25 µM

## O=S(=O)(NC1CCCC1)c1ccc2c(c1)c(Nc1ccc(F)cc1)nn2C1CC1 [Compound 8]
[1]; [4]
  EC50: 0.21 µM
[2]; [5]
  EC50: 0.62 µM
[3]
  CC50 at 4 days: > 25 µM

## CC(C)n1nc(Nc2ccc(F)cc2)c2cc(S(=O)(=O)NC3CCCC3)ccc21 [Compound 7]
[1]; [4]
  EC50: > 50 µM
[2]; [5]
  EC50: > 25 µM
[3]
  CC50 at 4 days: > 25 µM

## CC(C)NS(=O)(=O)c1ccc2c(c1)c(Nc1ccc(F)c(C(F)F)c1)nn2C [Compound 15]
[1]; [4]
  EC50: 0.44 µM
[2]; [5]
  EC50: 2.8 µM
[3]
  CC50 at 4 days: > 25 µM

## O=S(=O)(NC1CCCC1)c1ccc2[nH]nc(Nc3ccc(F)cc3)c2c1 [Compound 5]
[1]; [4]
  EC50: 1 µM
[2]; [5]
  EC50: 1.8 µM
[3]
  CC50 at 4 days: > 25 µM

## CC(C)NS(=O)(=O)c1ccc2[nH]nc(Nc3ccc(F)c(F)c3)c2c1 [Compound 13]
[1]; [4]
  EC50: 8.9 µM
[2]; [5]
  EC50: > 25 µM
[3]
  CC50 at 4 days: > 25 µM

## Cn1nc(Nc2ccc(F)cc2)c2cc(S(=O)(=O)NC3CCCC3)ccc21 [Compound 6]
[1]; [4]
  EC50: 0.49 µM
[2]; [5]
  EC50: 0.82 µM
[3]
  CC50 at 4 days: > 25 µM

## Cc1cc(Nc2nn(C)c3ccc(S(=O)(=O)N[C@H]4CCOC4)cc23)ccc1F [Compound 14]
[1]; [4]
  EC50: 1.1 µM
[2]; [5]
  EC50: 8.5 µM
[3]
  CC50 at 4 days: > 25 µM

## CC(=O)n1nc(Nc2ccc(F)cc2)c2cc(S(=O)(=O)NC3CCCC3)ccc21 [Compound 9]
[1]; [4]
  EC50: > 50 µM
[2]; [5]
  EC50: 18.4 µM
[3]
  CC50 at 4 days: > 25 µM

## Cc1cc(Nc2ncc3ccc(S(=O)(=O)N[C@H]4CCOC4)cn23)ccc1F [Compound 18]
[1]; [4]
  EC50: 1.7 µM
[2]; [5]
  EC50: > 25 µM
[3]
  CC50 at 4 days: > 25 µM

## Cc1cc(Nc2n[nH]c3ccc(S(=O)(=O)N[C@H]4CCOC4)cc23)ccc1F [Compound 12]
[1]; [4]
  EC50: 5.2 µM
[2]; [5]
  EC50: > 25 µM
[3]
  CC50 at 4 days: > 25 µM

## Cc1cc(Nc2nnc3ccc(S(=O)(=O)NC(C)C)cn23)ccc1F [Compound 19]
[1]; [4]
  EC50: 1.2 µM
[2]; [5]
  EC50: 3.4 µM
[3]
  CC50 at 4 days: > 25 µM

## Cn1nc(Nc2ccc(F)c(C(F)F)c2)c2cc(S(=O)(=O)N[C@H]3CCOC3)ccc21 [Compound 16]
[1]; [4]
  EC50: 1.3 µM
[2]; [5]
  EC50: 4.5 µM
[3]
  CC50 at 4 days: > 25 µM

## O=S(=O)(N[C@H]1CCOC1)c1ccc2[nH]nc(Nc3ccc(F)c(F)c3)c2c1 [Compound 11]
[1]; [4]
  EC50: 3.3 µM
[2]; [5]
  EC50: 12.4 µM
[3]
  CC50 at 4 days: > 25 µM

## O=S(=O)(NC1CCCCC1)c1ccc2onc(Nc3ccc(F)cc3)c2c1 [Compound 4]
[1]; HepG2.2.15, 144 h
  EC50: 0.74 µM
[2]; HepG2.117, 72 h
  EC50: 1.2 µM
[3]
  CC50 at 4 days: > 25 µM

## O=S(=O)(NC1CCCCC1)c1ccc2[nH]nc(Nc3ccc(F)cc3)c2c1 [Compound 3]
[1]; [4]
  EC50: 1 µM
[2]; [5]
  EC50: 4.6 µM
[3]
  CC50 at 4 days: > 25 µM

## CC(C)NS(=O)(=O)c1ccc2cnc(Nc3ccc(F)c(C(F)F)c3)n2c1 [Compound 17]
[1]; [4]
  EC50: 0.56 µM
[2]; [5]
  EC50: 14.2 µM
[3]
  CC50 at 4 days: > 25 µM
